Entries after “also recorded” stand apart in the source; their conditions may differ.
Tests used:
PC-12 cells = assay: MTT cytotoxicity assay; assay type: cell-based, rat; conditions: 0.039-100 μmol/L, 48 hours
Experimental: Cell culture and cytotoxicity assay: The test compound of Onjisaponin B was dissolved in DMSO at a final concentration of 100 mmol/L and stored at −20° C. Cytotoxicity was assessed using the 3-(4,5-dimethylthiazol-2-yl) -2,5-diphenyltetrazolium bromide assay as described previously. PC-12, 4000 cells were seeded on 96-well plates per well. After overnight pre-incubation, the cells were exposed to different concentrations of Onjisaponin B (0.039-100 μmol/L) for 2 days. Subsequently, 10 μL of MTT reagents was added to each well and incubated at 37° C. for 4 hours followed by the addition of 100 μL solubilization buffer (10% SDS in 0.01 mol/L HCl) and overnight incubation. Absorbance at 585 nm was determined from each well the next day. For cell viability assay measured by crystal violet staining, PC-12 cells were incubated in 35 mm disc followed by the addition of Onjisaponin B at the indicated concentrations for 24 hours. The cells were then incubated with crystal violet for 10 minutes followed by a ddH2O wash. […] Cell viability was quantified by dissolving the stained cells in 10% acetic acid (200 μL/well). The colorimetric reading of the solute mixture was then determined by spectrophotometer at OD 560 nm The percentage of cell viability was calculated using the following formula: Cell viability (%)=Cells number treated/Cells number DMSO control×100. […]

[1] = tested on: Atg7 wild-type mouse embryonic fibroblasts; assay: GFP-LC3 puncta in Atg7 wild-type MEFs; assay type: cell-based
Experimental: (§1) Quantification of autophagy GFP-LC3 Puncta in Atg7 wild type and deficient MEFs. GFP-LC3 puncta formation was quantified as described previously. In brief, both Atg7 wild-type and deficient mouse embryonic fibroblasts (MEFs) grown on coverslips in a 6-well plate were treated with indicated concentrations of Onjisaponin B. The cells were then fixed in 4% paraformaldehyde for 20 minutes at room temperature and then rinsed with PBS. Slides were mounted with FluorSave™ mounting media (Calbiochem, San Diego, Calif.) and examined by fluorescence microscopy. The number of GFP-positive cells with GFP-LC3 puncta formation was examined under the Nikon ECLIPSE 80i microscope. Representative images were captured with CCD digital camera Spot RT3™ (Diagnostic Instruments, Inc., Melville, N.Y.). To quantify for autophagy, the percentage of cells with punctate GFP-LC3 fluorescence was calculated by counting the number of the cells with punctate GFP-LC3 fluorescence in GFP-positive cells. A minimum of 150 cells from 3 randomly selected fields was scored.

[2] = tested on: Atg7-knockout mouse embryonic fibroblasts; assay: GFP-LC3 puncta in Atg7 deficient MEFs; assay type: cell-based
Experimental: as §1

[3] = tested on: P-AMPK and P-p70S6K in PC12 cells; assay: Western blot of mTOR signaling marker proteins; assay type: cell-based, rat
Experimental: Detection of mTOR signaling marker proteins. PC12 cells treated with indicated time and concentrations of Onjisaponin B were harvested and lysed in RIPA buffer (Cell Signaling). The cell lysates were then resolved by SDS-PAGE. After electrophoresis, the proteins from SDS-PAGE were transferred to nitrocellulose membrane which was then blocked with 5% non-fat dried milk for 60 minutes. The membrane was then incubated with P-p70S6K, p70S6K, P-AMPK, AMPK primary antibodies (1:1000) in TBST overnight at 4° C. respectively. After that, the membrane was further incubated with HRP-conjugated secondary antibodies for 60 minutes. Finally, protein bands were visualized by using the ECL Western Blotting Detection Reagents (Invitrogen).

[4] = tested on: PC12 cells expressing GFP-LC3; assay: GFP-LC3 puncta in the presence of specific inhibitors; assay type: cell-based, rat; conditions: 12 hours
Experimental: Quantification of Onjisaponin B-mediated autophagy in the presence of specific inhibitors. GFP-LC3 puncta formation was quantified as described previously. In brief, PC12 cells expressing GFP-LC3 were treated with Onjisaponin B (Onji, 25 μM) in the presence of AMPK inhibitor (compound C) (CC, 5 μM) or 3-Methyladenine (3-MA, 5 mM) for 12 hours. The cells were then fixed in 4% paraformaldehyde for 20 minutes at room temperature and then rinsed with PBS. Slides were mounted with FluorSave™ mounting media (Calbiochem) and examined by fluorescence microscopy. To quantify for autophagy, the percentage of cells with punctate GFP-LC3 fluorescence was calculated by counting the number of the cells with punctate GFP-LC3 fluorescence in GFP-positive cells. A minimum of 150 cells from 3 randomly selected fields was scored.

[5] = tested on: mutant A53T α-synuclein in doxycycline inducible PC 12 cell line; assay: Clearance of mutant A53T α-synuclein, immunoblotting against myc tag; assay type: cell-based, rat; conditions: PC 12 cells, 24 hours after doxycycline removal
Experimental: Removal of mutant huntingtin and mutant α-synuclein. PC 12 cells were transfected transiently with EGFP-HDQ74 plasmids for 24 hours using Lipofectamine Plus LTX reagent (Invitrogen) according to the manufacturer's protocol. The transfected cells were then treated with Onjisaponin B for 24 hours. The removal of mutant huntingtin, EGFP-HDQ74, was then quantitated by immunoblotting with antibody against EGFP. To measure the clearance of α-synuclein in cellular model, the overexpression of mutant A53T α-synuclein was first induced by the addition of doxycycline (1 μg/ml) (Sigma) for 24 hours, by using the doxycycline inducible PC 12 cell line transfected with A53T α-synuclein plasmid. The expression of mutant A53T α-synuclein was then switched off by removing doxycycline from medium. Cells were then incubated with Onjisaponin B for a further 24 hours. The clearance of mutant α-synuclein was then measured by immunoblotting with antibody against myc tag.

[6] = tested on: EGFP-HDQ74 inclusions in PC12 cells; assay: Mutant huntingtin aggregates in PC12, fluorescence microscopy; assay type: cell-based, rat; conditions: immunocytochemistry
Experimental: Quantification of mutant huntingtin aggregates in PC12, Atg7 wild type and deficient MEFs. In brief, both EGFP-HDQ74 transfected PC12, Atg7 wild-type and deficient mouse embryonic fibroblasts (MEFs) grown on coverslips in a 6-well plate were treated with indicated concentrations of Onjisaponin B. The cells were then fixed in 4% paraformaldehyde for 20 minutes at room temperature and then rinsed with PBS. Slides were mounted with FluorSave™ mounting media (Calbiochem, San Diego, Calif.) and examined by fluorescence microscopy. The number of cells with GFP-aggregates formation was examined under the Nikon ECLIPSE 80i microscope. Representative images were captured with CCD digital camera Spot RT3™ (Diagnostic Instruments, Inc., Melville, N.Y.). To quantify the clearance of mutant huntingtin, the percentage of cells with GFP-aggregates was calculated by counting the number of the cells with punctate GFP-LC3 fluorescence in GFP-positive cells. A minimum of 150 cells from 3 randomly selected fields was scored.

In the case of `COc1ccc(/C=C/C(=O)O[C@@H]2[C@H](O[C@@H]3O[C@@H](C)[C@H](O)[C@@H](O)[C@H]3O)[C@@H](O[C@@H]3O[C@@H](C)[C@H](O[C@@H]4OC[C@@H](O[C@@H]5O[C@H](CO)[C@H](O)[C@H](O)[C@H]5O)[C@H](O)[C@H]4O)[C@@H](O)[C@H]3O)[C@H](OC(=O)[C@]34CCC(C)(C)C[C@H]3C3=CC[C@@H]5[C@@]6(C)C[C@H](O)[C@H](O[C@@H]7O[C@H](CO)[C@@H](O)[C@H](O)[C@H]7O)[C@@](C)(C(=O)O)[C@@H]6CC[C@@]5(C)[C@]3(CO)CC4)O[C@@H]2C)cc1` [Onjisaponin B], the “Cytotoxicity in PC-12 cells (MTT assay)” value (PC-12 cells) is reported as “no significant cytotoxic effect; also recorded: no toxicity observed overtly”, the “GFP-LC3 puncta formation in wild type Atg7 cells” value [1] is reported as “induce GFP-LC3 puncta formation” and the “GFP-LC3 puncta formation in Atg7-knockout cells” value [2] is reported as “not in Atg7-knockout mouse embryonic fibroblasts”. For the same compound, the “Phosphorylation of AMPK” value ([3]; 25 μM at 8, 16, 24 hour, 3, 6.25, 12.5, 25 μM at 24 hour) was “activate the phosphorylation of AMPK in a time dependent manner”, the p70S6K phosphorylation ([3]; same treatments as AMPK blot) was “concomitant reduction in its downstream p70S6K phosphorylation” and the “Onjisaponin B-induced GFP-LC3 puncta formation in the presence of 3-Methyladenine” value ([4]; Onjisaponin B 25 μM + 3-MA 5 mM) was “significant reduction”. For the same compound, the “Onjisaponin B-induced GFP-LC3 puncta formation in the presence of AMPK inhibitor (compound C)” value ([4]; Onjisaponin B 25 μM + compound C 5 μM) was “significant reduction”, the “Clearance of myc-tagged mutant A53T α-synuclein” value [5] was “accelerate the clearance” and the “Clearance of inclusions formed by EGFP-HDQ74 in PC12 cells” value [6] was “enhanced the clearance of inclusions formed by EGFP-HDQ74”.
